Here are results for 3 compounds from ChEMBL document CHEMBL5550088, “Design, synthesis and evaluate of indazolylaminoquinazoline derivatives as potent Tropomyosin receptor kinase (TRK) inhibitors” (Bioorg Med Chem, 2024).

The target of assay [1] is High affinity nerve growth factor receptor (Homo sapiens, UniProt P04629). Briefly: Inhibition of wild type TRKA (unknown origin) preincubated for 30 mins followed by ATP and U Light-poly GT addition and measured after 2 hrs by multilabel plate reader method.
Sequence of High affinity nerve growth factor receptor (P04629 whole entry): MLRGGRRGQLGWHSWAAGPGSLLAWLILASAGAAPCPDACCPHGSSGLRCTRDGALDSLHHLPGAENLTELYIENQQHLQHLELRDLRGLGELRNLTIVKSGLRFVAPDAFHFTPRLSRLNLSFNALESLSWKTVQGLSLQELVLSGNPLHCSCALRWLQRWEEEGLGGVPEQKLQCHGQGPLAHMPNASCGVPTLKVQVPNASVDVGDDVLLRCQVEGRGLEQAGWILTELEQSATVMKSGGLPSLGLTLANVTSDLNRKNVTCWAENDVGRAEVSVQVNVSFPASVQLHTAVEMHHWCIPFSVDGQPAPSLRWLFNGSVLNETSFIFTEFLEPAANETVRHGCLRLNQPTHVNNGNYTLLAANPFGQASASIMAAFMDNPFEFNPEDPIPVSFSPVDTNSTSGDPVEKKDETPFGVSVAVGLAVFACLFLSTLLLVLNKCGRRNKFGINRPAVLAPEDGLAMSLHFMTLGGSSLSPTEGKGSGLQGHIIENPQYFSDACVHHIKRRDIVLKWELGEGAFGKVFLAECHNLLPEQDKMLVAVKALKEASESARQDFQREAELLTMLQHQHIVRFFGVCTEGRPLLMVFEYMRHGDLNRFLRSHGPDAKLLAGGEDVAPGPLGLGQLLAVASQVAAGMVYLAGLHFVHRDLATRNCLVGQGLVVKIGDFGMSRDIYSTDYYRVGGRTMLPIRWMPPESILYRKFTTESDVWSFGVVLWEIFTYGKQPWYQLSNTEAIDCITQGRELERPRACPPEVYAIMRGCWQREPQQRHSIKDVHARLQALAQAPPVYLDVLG
Assay [2] relates to BaF3. The experiment in a line: cells. Particulars: Mus musculus, BaF3, 72 h.
Assay [3] has as its system BaF3. Briefly: cells. Particulars: Mus musculus, BaF3, 72 h. This is another data set of the same source.
The test system of assay [4] is BaF3. The experiment in a line: Antiproliferative activity against mouse BaF3 cells harbouring ETV6-TRKB wildtype assessed as cell viability measured after 72 hrs by CCK-8 method. Particulars: BaF3, 72 h.
For assay [5], the system named is BaF3. Briefly: Antiproliferative activity against mouse BaF3 cells harbouring ETV6-TRKA wildtype assessed as cell viability measured after 72 hrs by CCK-8 method. Particulars: BaF3, 72 h. On the technique in general: Tetrazolium assays rely on reduction of a dye to a coloured formazan, in cell work by metabolically active cells.

In general, IC50 refers to the point on the concentration scale where inhibition reaches its midpoint. Compound `CN(C)C1CCN(c2ccc3c(Nc4n[nH]c5ccc(Cc6cc(F)cc(F)c6)cc45)n[nH]c3c2)C1` (stereo unspecified) gave an IC50 in assay [1] of 1.9 nM.
For the compound `O=C(Nc1cnn2ccc(N3CCC[C@@H]3c3cc(F)ccc3F)nc12)N1CC[C@H](O)C1` [LAROTRECTINIB], the IC50 with BaF3 [2] came out at 2890 nM; with BaF3 [3], 755 nM; with BaF3 [4], 4.9 nM; in the assay on BaF3 [5], 14.6 nM.
Compound `CN(C)C1CCN(c2ccc3c(Nc4n[nH]c5ccc(Cc6cc(F)cc(F)c6)cc45)ncnc3c2)C1` (stereo unspecified) had a half-maximal inhibitory concentration (IC50) in assay [1] of 2.3 nM.
